“Also recorded” adds a separate entry of the source.
What was measured:
guinea pig eyes = conditions: topical, cited from earlier work; for microvascular leakage followed by conjunctival inflammation: 6-hour post challenge
[1] = test system: human whole blood eosinophil; assay: Human whole blood eosinophil actin-polymerization response; type: cell-based; conditions: read-out: Actin-polymer EC50
From the text: Yet another secondary screening assay is an actin polymerization assay. Another biological effect of the interaction of PGD2 with CRTH2 is actin polymerization. Thus, an actin polymerization assay may be used as a secondary screen to characterize the activity of a compound isolated in the primary screening assays of the invention. In one embodiment, actin polymerization may be assayed using an actin-specific fluorescent label, nitrobenzoxadiazole (NBD)-phallacidin, which binds polymerized actin fiber. In a specific embodiment, the assay may be performed as follows: cell preparations are resuspended at 5-10×10^6 cells/ml in RPMI 1640 plus 10 mM HEPES, 100/10 Pen/Strep, and 0.5% FCS. The cell suspension is aliquoted (100 μL per well) into a 96-well U-bottom polypropylene microtiter plate. 50 ul of the appropriate stimulus (PGD2 or test compound, or both PGD2 and test compound) is added using an 8-channel pipette followed exactly 25 seconds later by 50 ul of a stopping solution which contains lysophosphotidylcholine (0.5 mg/ml), Hank's balanced salt solution (100 ul 10×), 16% formaldehyde (800 ul), and 6.6 uM NBD-phallacidin in MEOH (100 ul). The plate is allowed to sit at room temperature for 15 minutes. The plate is then centrifuged at 1000 rpm for 5 minutes, the supernatants flicked off and the cell pellets resuspended in 250 ul PBS plus 2%FCS and 0.2% sodium azide. Each sample is then read on a FACS Caliber instrument. Cells are gated using the forward scatter/side scatter data in the lymphocyte area. Responses are measured by the change in median FL-1 fluorescence between vehicle treated cells and stimulus treated cells. Test compounds can be assayed in the presence and absence of PGD2, and compared to a sample containing PGD2 alone. A compound that reduces PGD2-induced actin polymerization of CRTH2 cells is identified as a candidated CRTH2 antagonist.

[2] = test system: human activated T-lymphocytes; assay: Chemotaxis of human T lymphocytes (Boyden chamber); type: cell-based; conditions: anti-CD3 or anti-CD3 and anti-CD28 stimulated T cells
Experimental: (§1) The chemotactic response of human T lymphocytes to PGD2, murine MDC and murine mSDF was also assayed. Chemotaxis was determined using a 48-well Boyden chamber (Neuroprobe, Cabin John, Md.), and 3.0 μm polycarbonate filters. Cells were resuspended (3-3.5×10^6 cells/ml) in RPMI 1640 supplemented with 10 mM HEPES and 1 mg/ml bovine serum albumin (Sigma, St. Louis, Mo.), and placed into the upper wells of the chamber. The compound to be tested was placed in the lower wells. The chambers were incubated for 90-120 minutes at 37° C. in a humidified CO2 incubator. At the end of the incubation period, the number of migrating cells on the filter (expressed per high power field) were enumerated microscopically. […] In FIG. 4, the chemotactic response of human basophils to PGD2 and C5a is shown.

TP receptor = molecular target: T1, TP receptor (Homo sapiens, UniProt P21731); conditions: cited from earlier work
T1 sequence (P21731 1-343): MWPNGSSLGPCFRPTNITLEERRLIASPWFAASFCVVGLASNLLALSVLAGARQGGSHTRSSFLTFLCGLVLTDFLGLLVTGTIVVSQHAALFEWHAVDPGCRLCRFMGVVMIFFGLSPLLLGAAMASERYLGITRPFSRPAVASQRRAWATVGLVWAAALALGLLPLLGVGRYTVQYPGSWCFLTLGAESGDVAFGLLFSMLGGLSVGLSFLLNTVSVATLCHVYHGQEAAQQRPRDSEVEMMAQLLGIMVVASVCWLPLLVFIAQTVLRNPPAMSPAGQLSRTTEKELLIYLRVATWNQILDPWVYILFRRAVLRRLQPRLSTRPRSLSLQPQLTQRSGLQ

human basophils = assay: Chemotaxis of human basophils; type: cell-based
Experimental: as §1

Row | EC50 [1] [nM] | SMILES | microvascular leakage followed by conjunctival inflammation (guinea pig eyes) | ocular hypotension (guinea pig eyes) | chemotactic response of human T lymphocytes [2] | Ki (TP receptor) [µM] | chemotactic response of human basophils (human basophils)
1 | > 1000 | O=C(O)CCCCCCC1C(=O)NC(=O)N1CCC(O)C1CCCCC1 (centres unmarked) [BW-245C] | BW-245C-insensitive | mimicked by BW-245C | – | – | –
2 | > 300000 | CCCCC[C@H](O)/C=C/[C@H]1[C@H](O)CC(=O)[C@@H]1C/C=C\CCCC(=O)O [PGE2] | – | – | – | – | –
3 | 1900 | CCCCC[C@H](O)/C=C/[C@@H]1[C@@H](C/C=C\CCCC(=O)O)[C@@H](O)C[C@H]1O [PGF2α] | – | – | – | – | –

Row | SMILES | EC50 [1] [nM] | microvascular leakage followed by conjunctival inflammation (guinea pig eyes) | ocular hypotension (guinea pig eyes) | chemotactic response of human T lymphocytes [2] | Ki (TP receptor) [µM] | chemotactic response of human basophils (human basophils)
4 | CCCCC[C@H](O)/C=C/[C@H]1C(=O)C[C@H](O)[C@@H]1C/C=C\CCCC(=O)O [PGD2, prostaglandin D2] | 4 | microvascular leakage followed by conjunctival inflammation | elicits ocular hypotension | respond specifically to PGD2; also recorded: responsive to PGD2 | 75 | responsive to PGD2
